Reference: US20220017489A1, “SOLID DISPERSIONS FOR TREATMENT OF CANCER” (Celgene Corporation, priority 2018, published 2022)
Converted amounts (≈) assume the structure as drawn. Where two headings read alike, the source gives them in different places.

Assays:
[1] = Amorphous solid dispersion screen for Compound 1A: HT-XRPD after accelerated aging conditions (40° C./70% RH, 4 weeks); assay type: physicochemical; conditions: HT-XRPD form after accelerated aging conditions, 4 weeks at 40° C. and 70% RH
Procedure: The plates were mounted on a Bruker General Area Detector Diffraction System (GADDS) equipped with a VÅNTEC-500 gas area detector corrected for intensity and geometric variations. The calibration of the measurement accuracy (peaks position) was performed using NIST SRM1976 standard (Corundum).
No background subtraction or curve smoothing was applied to the XRPD patterns.

[2] = Solubility determination of amorphous solid dispersions of Compound 1A in water, SIF and SGF at 37° C.; assay type: physicochemical
Procedure: For the solubility determination, suspensions of Compound 1A and dispersions were prepared in 3 mL aqueous medium. […] Samples were taken after 0.5, 1 and 2 hours, filtered over a PTFE spin filter and the concentration of Enasidenib in solution was determined by HPLC analysis. In the next sections the solubility results are discussed per aqueous media.
The concentration of API in solution was determined by HPLC analysis after 0.5, 1 and 2 hours.

[3] = 37° C.
[4] = Anti-precipitant screening of Compound 1A by solvent shift method in SIF; assay type: physicochemical; conditions: control experiment, crystalline solid, no polymer
Procedure: The anti-precipitant screen by the solvent shift method was used for discovering polymers that can maintain the supersaturated state of Compound 1A in solution. Based on the results of this screen, polymers were selected for the development of the ASD.
The concentration of free base in solution was determined by HPLC analysis.

[5] = Kinetic solubility of Compound 1A in SIF and SGF (DMSO solutions added to medium); assay type: physicochemical; conditions: 80 μL of 60, 30, 15 and 5 mg/mL DMSO solutions added to 4 mL
Procedure: Prior to the solvent shift experiments, the kinetic solubility of Compound 1A was tested in simulated intestinal fluid (SIF) and simulated gastric fluid (SGF) in order to choose the Compound 1A concentration suitable for the solvent shift experiments. Four different Compound 1A solutions (in DMSO) were prepared with concentrations of 60, 30, 15 and 5 mg/mL. Subsequently, 80 μL of these solutions were added to 4 mL of SGF and to 4 mL of SIF.
For the solvent shift experiments in SIF, Compound 1A concentration in DMSO of 5 mg/mL was used.

[6] = Quantitative (24-hour shake flask) thermodynamic solubility of Compound 1A in organic solvents and water; assay type: physicochemical; conditions: room temperature
Procedure: The solubility of Compound 1A was quantitatively assessed in 10 different organic solvents and water. Slurries were prepared by mixing 30 mg of Compound 1A with an appropriate solvent volume. A stirring bean was added and the suspensions were stirring (500 rpm) at room temperature for 24 hours. An aliquot of the suspension was transferred into a spin filter (nylon, 0.2 μm). The solubility of the filtered solution was determined by HPLC.

[7] = physchem; conditions: thermodynamic from solid
[8] = thermodynamic from solid, Water

SMILES: CC(C)(O)CNc1nc(Nc2ccnc(C(F)(F)F)c2)nc(-c2cccc(C(F)(F)F)n2)n1 [ASD102]
- XRPD AAC [1]: Form 1
- Concentration API ([2]; SGF, 0.5 hours): 20800 ng/mL
- Concentration API ([2]; SGF, 1 hour): 13000 ng/mL
- Concentration API ([2]; SGF, 2 hours): 10900 ng/mL
- Concentration API ([2]; SIF, 0.5 hours): <100 ng/mL
- Concentration API ([2]; SIF, 1 hour): <100 ng/mL
- Concentration API ([2]; SIF, 2 hours): <100 ng/mL
- Concentration API ([2]; Water, 0.5 hours): <100 ng/mL
- Concentration API ([2]; Water, 1 hour): <100 ng/mL
- Concentration API ([2]; Water, 2 hours): <100 ng/mL

SMILES: CC(C)(O)CNc1nc(Nc2ccnc(C(F)(F)F)c2)nc(-c2cccc(C(F)(F)F)n2)n1 [Compound 1A, 2-methyl-1-[(4-[6-(trifluoromethyl)pyridin-2-yl]-6-{[2-(trifluoromethyl)pyridin-4-yl]amino}-1,3,5-triazin-2-yl)amino]propan-2-ol]
- Concentration API (μg/mL) 0.5 h ([3]; SGF): 21.9 µg/mL
- pH 0.5 h ([3]; SGF): 1.24
- Concentration API (μg/mL) 1 h ([3]; SGF): 17.2 µg/mL
- Concentration API (μg/mL) 2 h ([3]; SGF): 14.6 µg/mL
- pH 2 h ([3]; SGF): 1.23
- Concentration API (μg/mL) 0.5 h ([3]; SIF): 0.4 µg/mL
- pH 0.5 h ([3]; SIF): 6.60
- Concentration API (μg/mL) 1 h ([3]; SIF): <0.1 µg/mL
- Concentration API (μg/mL) 2 h ([3]; SIF): <0.1 µg/mL
- pH 2 h ([3]; SIF): 6.44
- Concentration API (μg/mL) 0.5 h ([3]; Water): 0.7 µg/mL
- pH 0.5 h ([3]; Water): 2.64
- Concentration API (μg/mL) 1 h ([3]; Water): 0.4 µg/mL
- Concentration API (μg/mL) 2 h ([3]; Water): 0.3 µg/mL
- pH 2 h ([3]; Water): 2.15
- Solubility of crystalline Compound 1A in SIF [4]: practically insoluble
- Kinetic solubility (precipitation) ([5]; SGF): precipitation was observed when using the solution with the highest concentration
- Kinetic solubility (precipitation) ([5]; SIF): precipitated using all four concentrations
- Concentration API ([2]; SGF, 0.5 hours): ~80000 ng/mL
- Concentration API ([2]; SGF, 0.5 hours, listed as SM): 75800 ng/mL
- Concentration API ([2]; SGF, 1 hour): 41300 ng/mL
- Concentration API ([2]; SGF, 2 hours): about 20 μg/mL
- Concentration API ([2]; SGF, 2 hours, listed as SM): 19400 ng/mL
- Concentration API ([2]; SIF, 0.5 hours): 300 ng/mL
- Concentration API ([2]; SIF, 1 hour): <100 ng/mL
- Concentration API ([2]; SIF, 2 hours): <100 ng/mL
- Concentration API ([2]; Water, 0.5 hours, listed as SM): 1000 ng/mL
- Concentration API ([2]; Water, 1 hour): 400 ng/mL
- Concentration API ([2]; Water, 2 hours): <100 ng/mL
- solubility [2, 8]: ~1 µg/mL (≈ 0.00211 mM)
- solubility ([6]; Water): practically insoluble
- solubility at 24 h ([6]; organic solvent or mixture, thermodynamic from solid, 1,4-Dioxane): 69200 µg/mL (≈ 146 mM)
- solubility at 24 h ([6]; organic solvent or mixture, thermodynamic from solid, 2-Propanol): 229000 µg/mL (≈ 484 mM)
- solubility at 24 h ([6]; organic solvent or mixture, thermodynamic from solid, Acetone): 209000 µg/mL (≈ 442 mM)
- solubility at 24 h ([6]; organic solvent or mixture, thermodynamic from solid, Acetonitrile): 14700 µg/mL (≈ 31.1 mM)
- solubility at 24 h ([6]; organic solvent or mixture, thermodynamic from solid, Chloroform): 70600 µg/mL (≈ 149 mM)
- solubility at 24 h ([6]; organic solvent or mixture, thermodynamic from solid, Ethanol): > 408000 µg/mL
- solubility at 24 h ([6]; organic solvent or mixture, thermodynamic from solid, Ethyl acetate): 127000 µg/mL (≈ 268 mM)
- solubility at 24 h ([6]; organic solvent or mixture, thermodynamic from solid, Methanol): > 463000 µg/mL
- solubility at 24 h ([6]; organic solvent or mixture, thermodynamic from solid, Tetrahydrofuran): > 429000 µg/mL
- solubility at 24 h [6, 8]: < 100 µg/mL
- solubility at 24 h ([7]; 1,4-dioxane, organic solvent or mixture): 400 µg/mL (≈ 0.845 mM)
- solubility at 24 h ([7]; 2-propanol, organic solvent or mixture): 1400 µg/mL (≈ 2.96 mM)
- solubility at 24 h ([7]; acetone, organic solvent or mixture): 900 µg/mL (≈ 1.9 mM)
- solubility at 24 h ([7]; acetonitrile, organic solvent or mixture): 500 µg/mL (≈ 1.06 mM)
- solubility at 24 h ([7]; chloroform, organic solvent or mixture): 200 µg/mL (≈ 0.422 mM)
- solubility at 24 h ([7]; ethanol, organic solvent or mixture): 7300 µg/mL (≈ 15.4 mM)
- solubility at 24 h ([7]; ethyl acetate, organic solvent or mixture): 200 µg/mL (≈ 0.422 mM)
- solubility at 24 h ([7]; methanol, organic solvent or mixture): 35600 µg/mL (≈ 75.2 mM)
- solubility at 24 h ([7]; tetrahydrofuran, organic solvent or mixture): 1800 µg/mL (≈ 3.8 mM)
- solubility at 24 h ([7]; water): < 100 µg/mL
